Test results: patent publication US8093274B2, “Inhibitors of protein prenyltransferases” (The Regents of the University of California, priority 2006, dated 2012)

What was measured:
[1] = test system: GGTase-I; assay: GGTase-I inhibition kinetics, double reciprocal plots; type: biochemical; details: varying GGPP with fixed RhoA
Experimental: (§1) The GGTase-I assay was carried out using RhoA as a substrate protein, GGTase-I (JENA Bioscience) and [3H]geranylgeranyl pyrophosphate. Incubation was for 30 min at 37 C. GGTase-H (or RabGGTase) assay was carried out using YPT1 as a substrate protein, GGTase-H (Calbiochem, San Diego, Calif.) plus REP1 (Calbiochem) and [3H]geranylgeranyl pyrophosphate. Incubation was for 30 min at 37 C. FIGS. 20D-20F show the three dimensional structure of GGTase I (D), FTsse (E) and GGTase II (F) which can be obtained from X-ray diffraction studies of protein crystals.
The graphs in FIG. 21 show double reciprocal plots obtained from substrate velocity curves for the inhibition of GGTase-I by P3-E5 (left) and P5-H6 (right). The upper figures show varying GGPP concentrations with a fixed RhoA protein concentration were used. The lower figures show varying RhoA protein concentrations with a fixed GGPP concentration was used. The following scale was used to prepare the graphs: Y-axis: 1/v, fmol/min. X-axis: 1/s, mM.

[2] = test system: K562 cells; assay: Proliferation of K562 cells, cell counting kit-8; type: cell-based, human; details: 72 hours; relative to DMSO control
Experimental: (§2) K562 cells are a cell line of human erythroleukemia cells. The K562 cells were treated with P3-E5, P5-H6 or GGTI-298 (a known GGTI compound illustrated in FIG. 27) for 72 hours and then cell number was counted using cell counting kit-8 (Dojindo, Gaithersburg, Md.). Cell viability relative to the DMSO control and the known GGTI compound is plotted in FIG. 23.

[3] = test system: geranylgeranylated Rheb (Rheb-CSVL) in HEK 293 cells; assay: Geranylgeranylation of Rheb-CVSL in HEK 293 cells, mobility shift on Western blot; type: cell-based, human; details: for inhibition of geranylgeranylation of Myc-HA tagged-Rheb-CVSL in cells: HEK 293 cells treated for 48 hours; for inhibition of geranylgeranylation of Rheb-CSVL within the cell: HEK 293 cells, FIG. 33
Description: Finally, we investigated in vivo effects of compounds 22 (also known as UC-22) and 23 (also known as UC-23). Human embryonic kidney (HEK) 293 cells were transfected with the Rheb-CSVL construct that expresses the geranylgeranylated form of the Rheb protein. Inhibition of the geranylgeranylation of this protein can be detected from a shift in its mobility on SDS polyacrylamide gel; the unprocessed form appears as a slowly migrating band.
Human embryonic kidney (HEK) 293 cells expressing Myc-HA tagged-Rheb-CVSL (upper) or Myc-HA tagged-Rheb-WT (lower) were treated with P3-E5 for 48 hours and then lysed. The cell lysates were run on a SDS polyacrylamide gel and immunoblotted using anti-Myc or anti-Actin antibody. The descriptors P and U indicate processed and unprocessed Rheb, respectively.
Human embryonic kidney (HEK) 293 cells expressing Myc-HA tagged-Rheb-CVSL (upper) or Myc-HA tagged-Rheb-WT (lower) were treated with mP5-H6a (also referred to as mP5-H6), or GGTI-298 for 48 hours and then lysed. Lysates were run on a SDS polyacrylamide gel and immunoblotted with anti-Myc or anti-Actin antibody.

[4] = biological target: GGTase I (substrate RhoA) (Homo sapiens, UniProt P49354+P53609); assay: GGTase I filter-binding assay with RhoA as substrate; type: biochemical; details: for IC50: FIG. 15, read-out: IC50 for the inhibition of GGTase I using RhoA as a substrate; for specificity of GGTase I inhibition: compared with FTase and GGTase-II, varying concentrations, FIGS. 20A-20C; for activity at 50 µM: 50 μM compound, DMSO = 100%, smaller numbers indicate better inhibition, second number of pair, read-out: % activity of GGTase I for protein RhoA in the presence of the compound
Experimental: (§3) The pilot library was screened for inhibitors of protein geranylgeranyltransferase type I. Protein prenyltransferase assays were carried out by using filter binding. Two different substrates, RhoA and K-Ras4B, were used for the assay. RhoA ends with the CaaL motif and is an exclusive substrate for GGTase I, while K-Ras4B ends with the CaaX motif and is modified by both GGTase I and FTase.
(§4) The % activity of GGTase I was determined as follows: a working solution that contained each compound in DMSO at the concentration of 1 mM was prepared. The working solution was added to GGTase I reaction mixture so that the final concentration of the compound is 50 μM. GGTase I activity was assayed by incubating [^3H]GGPP with K-Ras4B or RhoA protein in the presence of GGTase I and examining radioactivity incorporated into the substrate protein by spotting onto a filter paper. After washing with TCA, ethanol and acetone, the radioactivity retained on the filter was determined by the use of a scintillation counter. GGTase I activity in the presence of DMSO was taken as a 100% value and the activity in the presence of the compound was shown as percent activity compared with the 100% value. […] For 6-aryl-4-mercapto-N-sulfonyl-piperidine-3-carboxylic acid 11 the 4-mercapto substituent appeared critical to endowing GGTase inhibitory activity. […] 4-Chlorobenzylthio substituent was the next best; 12 compounds out of 21 containing the 4-chlorobenzylthio moiety were active. 4-Benzylthio substituent was also good; 7 piperidines out of 21 bearing 4-benzylthio group were active. […] 19 imines (C15>C12=C41>C40>C01=C11>C05=C10=C30=C35=C37=C38>C02, C03, C04, C06, C39=C43) out of 21 appeared in the GGTIs. […] This corresponds to 47 6-aryl-4-mercapto-N-sulfonyl-piperidine-3-carboxylic acids out of 357 compounds.
(§5) A collection of 138 heterocycles was screened for their ability to inhibit the activity of human GGTase-I to geranylgeranylate K-Ras4B or RhoA. Purified GGTase-1 was incubated with its substrate protein K-Ras4B or RhoA, [^3H]GGPP, and the 138 compounds. After 30 min, the degree of incorporation of tritiated geranylgeranyl groups was measured using a scintillation counter.
as §1

[5] = biological target: T1, protein farnesyltransferase (FTase) (Rattus norvegicus, UniProt Q02293+Q04631); assay: Protein farnesyltransferase assay with K-Ras4B and [3H]FPP; type: biochemical; details: for inhibition of FTase activity: FIG. 16, concentration increased to 100 μM; for inhibition of FTase: at concentrations at which they inhibited GGTase-I by more than 90%
T1 construct: purchased JENA Bioscience
Description: To further characterize the pilot library, inhibitors of protein farnesyltransferase were identified. This was accomplished by using K-Ras4B as a substrate protein, tritiated farnesylpyrophosphate ([^3H]FPP) and protein farnesyltransferase. See Finegold, A. A., Johnson, D. I., Farnsworth, C. C., Gelb, M. H., Judd, S. R., Glomset, J. A. and Tamanoi, F. (1991) Protein geranylgeranyltransferase of Saccharomyces cerevisiae is specific for Cys-Xaa-Xaa-Leu motif and requires the CDC43 gene product but not the DPRI gene product. Proc. Natl. Acad. Sci. USA 88, 4448-4452. […] On the other hand, the structure of the compounds P1-F11, P2-B7 and P2-E9 resemble those of GGTIs. The FTI P1-F11 resembles the GGTI P1-F10, while the FTI P2-B7 resembles the GGTI P2-C10. The FTI P2-E9 is similar to the GGTI P2-G3. Similarity of some GGTI and FTI compounds may point to common structural features between the two closely related enzymes. As described before, FTase and GGTase I have similar three-dimensional structures and a shared alpha subunit. On the other hand, FTase specific inhibitors may recognize a region(s) that is different between the two enzymes.
Varying concentrations of the two compounds were added to each enzyme reaction. The FTase (protein farnesyltransferase) assay was carried out using K-Ras4B as a substrate protein, FTase (JENA Bioscience, San Diego, Calif.) and […] pyrophosphate. Incubation was for 30 min at 37 C.

[6] = test system: K562 cells; assay: Cell cycle profile of K562 cells by flow cytometry; type: cell-based, human; details: 48 hours; 0 to 10 mM
Experimental: K562 cells were treated with indicated concentrations (mM) of P3-E5 (ranging from […]) or GGTI-298 (ranging from […]) for 48 hours. Cell cycle profiles were monitored by flow cytometry. Percentages of cells in each phase of the cell cycle are indicated by different colors. Red: G0/G1 phase. Black: S phase. Gray: G2/M phase.

[7] = biological target: GGTase I (substrate K-Ras4B) (Homo sapiens, UniProt P49354+P53609); assay: GGTase I filter-binding assay with K-Ras4B as substrate; type: biochemical; details: 50 μM compound; DMSO = 100%; smaller numbers indicate better inhibition; first number of pair; read-out: % activity of GGTase I for protein K-Ras4B in the presence of the compound
Experimental: as §3, §4, §5

[8] = biological target: GGTase I (Homo sapiens, UniProt P49354+P53609); assay: GGTase I assay, substrate not specified or K-Ras4B and RhoA compared; type: biochemical; details: for inhibition of GGTase I: FIG. 16
Experimental: as §3, §4, §5

[9] = test system: Panc-1 cells; assay: Proliferation of Panc-1 cells; type: cell-based, human
Experimental: as §2
(§6) Panc-1 cells (Pancreatic cancer cell line) and Jurkat cells (T-cell leukemia) were treated with 12.5 μM of P5-H6 or 12.5 μM of mP5-H6a for 72 hours. The cell number was counted as described in Example 5.

[10] = test system: BT474; assay: Proliferation of BT474 cells; type: cell-based, human
[11] = test system: Jurkat cells; assay: Proliferation of Jurkat cells; type: cell-based, human
Experimental: as §2, §6

[12] = test system: MDA-MB231; assay: Proliferation of MDA-MB231 cells; type: cell-based, human
[13] = test system: MiaPaCa2; assay: Proliferation of MiaPaCa2 cells; type: cell-based, human

SMILES | mode of inhibition of GGTase-I [1] | inhibition of proliferation of K562 cells [2] | inhibition of geranylgeranylation of Myc-HA tagged-Rheb-CVSL in cells [3] | inhibition of geranylgeranylation of Rheb-CSVL within the cell [3] | IC50 [4] [µM] | specificity of GGTase I inhibition [4] | inhibition of FTase activity [5] | inhibition of FTase [5] | activity at 50 µM [4] [%] | activity at 50 µM [7] [%] | inhibition of GGTase I [8] | also measured
Cc1ccccc1S(=O)(=O)N1[C@@H](c2cccc(Cl)c2)C(C(=O)O)=CC[C@H]1c1ccc(Cl)cc1 (relative stereo) [P3-E5] | compete with a substrate protein but do not compete with GGPP | inhibit proliferation of K562 cells | inhibits geranylgeranylation in cells | inhibit geranylgeranylation within the cell | 7 | specifically inhibit GGTase I | no inhibition of FTase activity was observed | did not inhibit FTase |  |  |  | cell cycle effect in K562 cells [6]: induces G1 arrest in K562 cells
Cc1ccccc1S(=O)(=O)N1[C@@H](c2ccc(Cl)cc2)C(C(=O)O)=C[C@H]1C(C)(C)C (relative stereo) [P5-H6] | compete with a substrate protein but do not compete with GGPP | inhibit proliferation of K562 cells |  | inhibit geranylgeranylation within the cell |  | specifically inhibit GGTase I |  | did not inhibit FTase | 5.3 | 13.3 |  | 
Cn1cncc1CN1C[C@@H](Cc2ccccc2)N(S(=O)(=O)c2cccs2)Cc2cc(C#N)ccc21 [BMS225975, reference compound] |  |  |  |  |  |  | inhibits FTase |  |  |  | does not inhibit GGTase I | 
COC(=O)[C@H](CC(C)C)NC(=O)c1ccc(NC[C@@H](N)CS)cc1-c1cccc2ccccc12 [GGTI-298, reference compound] |  |  |  |  | 1.6 |  | little inhibition was observed with FTase |  |  |  | inhibits GGTase I | substrate preference of GGTase I inhibition (RhoA vs K-Ras4B), known GGTIs ([8]; FIG. 17): inhibit RhoA-driven GGTase I activity slightly better than K-Ras4B-driven GGTase I activity
O=C(O)C1=CCC(c2ccc(Cl)cc2)N(S(=O)(=O)c2ccc(Cl)cc2)[C@H]1c1cccc(Cl)c1 (stereo partly shown) [P3-D9] |  |  |  |  | 5 |  | no inhibition of FTase activity was observed |  | 26.7 | 33.1 |  | 
COC(=O)[C@H](Cc1ccccc1)NCC(=O)OCC1=C[C@@H](C(C)(C)C)N(S(=O)(=O)c2ccccc2C)C1c1ccc(Cl)cc1 (stereo partly shown) [mP5-H6] |  |  | inhibits geranylgeranylation in vivo |  |  |  |  |  |  |  |  | inhibition of proliferation of pancreatic cancer cell line Panc-I [9]: inhibits proliferation; inhibition of growth of Panc-1 cells relative to P5-H6 ([9]; 12.5 μM, 72 hours): inhibits the growth of Panc-1 cells and Jurkat cells better than P5-H6; inhibition of proliferation of breast cancer cell line BT474 [10]: inhibits proliferation; inhibition of proliferation of leukemic cell line Jurkat [11]: inhibits proliferation; inhibition of growth of Jurkat cells relative to P5-H6 ([11]; 12.5 μM, 72 hours): inhibits the growth of Panc-1 cells and Jurkat cells better than P5-H6; inhibition of proliferation of breast cancer cell line MDA-MB231 [12]: inhibits proliferation; inhibition of proliferation of pancreatic cancer cell line MiaPaCa2 [13]: inhibits proliferation
